Reference: patent US11186606B2, “Compositions and methods of modulating the immune response by activating alpha protein kinase 1” (Shanghai Yao Yuan Biotechnology Co., Ltd., priority 2017, dated 2021)

Experiments:
ALPK1 [1] = molecular target: T1, ALPK1 (Homo sapiens, UniProt Q96QP1); experiment: Thermal shift assay (SYPRO Orange) for binding to ALPK1; settings: ALPK1 7 uM
Text: The thermal shift assay is widely used to determine the binding of a molecule to a protein of interest. The assay is based on the increase in thermal energy required for denaturation of a protein where another molecule is bound to the protein. SYPRO Orange is a fluorescent compound used in the detection of thermal shift. SYPRO Orange binds to hydrophobic surfaces of the protein, and water strongly quenches its fluorescence. When the protein unfolds, the exposed hydrophobic surfaces bind the dye, resulting in an increase in fluorescence. When another molecule is bound to the protein, an increase in the temperature required for unfolding of the protein is observed.
This assay system was used to determine whether or not chemically synthesized HBP, HMP-1bP, and H1b-ADP directly bind to ALPK1. […] Only H1b-ADP induced a shift of more than 1 degree, at each of the three highest concentrations tested, 5 uM, 25 uM, and 125 uM.

TLR-9 = molecular target: T2, TLR-9 (Homo sapiens, UniProt Q9NR96); settings: US 20100016250 by Nagata et al.; cited from earlier work
T2 sequence (Q9NR96 26-1032): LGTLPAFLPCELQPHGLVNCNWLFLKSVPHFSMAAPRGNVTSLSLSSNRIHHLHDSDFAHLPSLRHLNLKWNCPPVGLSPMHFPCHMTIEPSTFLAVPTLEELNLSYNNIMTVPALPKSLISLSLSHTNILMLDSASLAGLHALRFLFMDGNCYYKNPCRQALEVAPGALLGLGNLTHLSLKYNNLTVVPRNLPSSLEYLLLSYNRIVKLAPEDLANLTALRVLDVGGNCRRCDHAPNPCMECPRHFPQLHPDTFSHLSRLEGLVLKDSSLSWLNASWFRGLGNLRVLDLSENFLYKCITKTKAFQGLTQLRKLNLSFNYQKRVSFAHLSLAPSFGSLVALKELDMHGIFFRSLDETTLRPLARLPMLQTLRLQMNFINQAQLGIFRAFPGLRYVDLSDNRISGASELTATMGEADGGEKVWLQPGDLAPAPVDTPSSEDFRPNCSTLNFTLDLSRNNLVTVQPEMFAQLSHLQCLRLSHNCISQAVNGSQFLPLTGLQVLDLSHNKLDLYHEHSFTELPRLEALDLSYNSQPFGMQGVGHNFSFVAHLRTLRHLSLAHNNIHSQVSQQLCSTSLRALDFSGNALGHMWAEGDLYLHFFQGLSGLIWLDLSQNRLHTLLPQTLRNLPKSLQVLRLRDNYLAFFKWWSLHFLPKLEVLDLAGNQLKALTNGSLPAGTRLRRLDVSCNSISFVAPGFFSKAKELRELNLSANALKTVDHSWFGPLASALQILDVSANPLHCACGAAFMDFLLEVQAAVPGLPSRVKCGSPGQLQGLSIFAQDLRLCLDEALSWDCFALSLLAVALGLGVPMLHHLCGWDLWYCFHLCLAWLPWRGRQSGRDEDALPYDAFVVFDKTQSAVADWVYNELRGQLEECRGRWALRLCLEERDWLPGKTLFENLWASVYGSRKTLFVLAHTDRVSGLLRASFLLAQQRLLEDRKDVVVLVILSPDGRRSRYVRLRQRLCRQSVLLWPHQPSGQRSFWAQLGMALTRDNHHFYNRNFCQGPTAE

ALPK1 [2] = molecular target: T1, ALPK1; experiment: IL8 secretion in HEK293 cells (IL8 ELISA) as indicator of ALPK1 activation; settings: cells cultured with fetal bovine, human or mouse serum
Procedure: We pre-mixed H1b-ADP with phosphatase inhibitor sodium orthovanadate (Na3VO4) before incubation with FBS.
In these experiments, serial dilutions of the compounds were added to the tissue culture media of HEK293 cells with (FIG. 27B, FIG. 28B, FIG. 29B) or without (FIG. 26, FIG. 27A, FIG. 28A, FIG. 29A) 10% FBS, as indicated in the figures. After 4 hours, the cell supernatant was collected and analyzed for IL8 concentration using IL8 ELISA (BD) as an indicator of ALPK1 activation.

ALPK1 [3] = molecular target: T1, ALPK1; experiment: IL-8 and TNFα mRNA expression in HEK293 cells with control or ALPK1-directed siRNA; assay type: cell-based; design: ALPK1-directed small interfering RNA (siRNA) to silence ALPK1 expression in HEK293 cells; endogenous in cells; host or cells: HEK293
Procedure: To test whether HBP, HMP-1bP, and H1b-ADP were able to induce cytokine expression in an ALPK1 dependent manner, we used an ALPK1-directed small interfering RNA (siRNA) to silence ALPK1 expression in HEK293 cells. Cells were plated (1×10^4 cells/well) into 96-well plates and transfected with either control siRNA or ALPK1-directed siRNA according to the manufacturer's protocols (Lipofectamine™ RNAiMax™, Invitrogen 13778075). Following 2 days of culture, either (1) HBP (500 uM, 100 uM, 20 uM, FIG. 2A-2B) (2) HMP-1bP (500 uM, 100 uM, FIG. 3A-3B), (3) H1b-ADP (100 nM, 20 nM, 4 nM, 0.8 nM, FIG. 4A-4B) was added to culture medium and cells were harvested 4 hours later.

[4] = 4 hours, control vs ALPK1-directed siRNA

T1 sequence (Q96QP1 whole entry): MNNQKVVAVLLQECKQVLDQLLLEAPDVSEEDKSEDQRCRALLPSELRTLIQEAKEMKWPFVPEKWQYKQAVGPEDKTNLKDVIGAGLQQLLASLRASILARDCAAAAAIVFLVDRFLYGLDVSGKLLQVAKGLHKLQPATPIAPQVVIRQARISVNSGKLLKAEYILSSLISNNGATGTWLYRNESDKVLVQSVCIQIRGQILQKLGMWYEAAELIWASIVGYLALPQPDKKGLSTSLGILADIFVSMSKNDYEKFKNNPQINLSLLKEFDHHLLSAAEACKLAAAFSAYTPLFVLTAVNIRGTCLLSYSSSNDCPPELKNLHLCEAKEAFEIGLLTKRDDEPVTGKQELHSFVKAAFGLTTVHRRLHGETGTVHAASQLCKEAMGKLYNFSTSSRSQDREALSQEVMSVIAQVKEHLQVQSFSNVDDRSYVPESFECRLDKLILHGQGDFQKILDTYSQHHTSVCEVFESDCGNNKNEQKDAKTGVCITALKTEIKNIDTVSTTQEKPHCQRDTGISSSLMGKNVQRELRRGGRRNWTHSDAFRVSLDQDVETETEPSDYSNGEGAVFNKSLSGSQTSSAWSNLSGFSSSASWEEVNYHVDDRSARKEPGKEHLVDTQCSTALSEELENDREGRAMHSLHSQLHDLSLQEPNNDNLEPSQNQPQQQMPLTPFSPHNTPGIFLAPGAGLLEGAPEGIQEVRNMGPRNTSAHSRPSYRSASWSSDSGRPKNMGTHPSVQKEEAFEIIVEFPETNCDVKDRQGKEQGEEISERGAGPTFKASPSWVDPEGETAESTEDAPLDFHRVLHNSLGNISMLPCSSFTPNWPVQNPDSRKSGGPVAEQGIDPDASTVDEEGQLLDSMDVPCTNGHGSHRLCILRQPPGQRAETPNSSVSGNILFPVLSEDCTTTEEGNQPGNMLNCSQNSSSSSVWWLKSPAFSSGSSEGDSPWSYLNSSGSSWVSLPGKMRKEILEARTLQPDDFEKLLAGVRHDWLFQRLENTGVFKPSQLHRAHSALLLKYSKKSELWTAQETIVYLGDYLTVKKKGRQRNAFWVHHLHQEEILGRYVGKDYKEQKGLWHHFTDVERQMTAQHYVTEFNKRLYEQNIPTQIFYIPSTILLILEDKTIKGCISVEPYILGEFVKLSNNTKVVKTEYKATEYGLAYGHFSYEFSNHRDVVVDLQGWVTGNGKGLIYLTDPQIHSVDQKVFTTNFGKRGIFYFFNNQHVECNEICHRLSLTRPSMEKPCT

thermal shift / direct binding to ALPK1 (ALPK1 [1]; 1 uM, 5 uM, 25 uM, or 125 uM): able to directly bind to ALPK1
thermal shift of ALPK1 (ALPK1 [1]; at 5 uM, 25 uM, and 125 uM): more than 1 degree
activity to activate ALPK1 in HEK293 cells (IL8 secretion) (ALPK1 [2]): greatly declined
IL-8 mRNA expression (ALPK1 [3]; [4]): increased in an ALPK1-dependent manner
TNFα mRNA expression (ALPK1 [3]; [4]): increased in an ALPK1-dependent manner
concentration at which IL-8 and TNFα mRNA expression were induced (ALPK1 [3]; FIG. 5): 10 nM
SMILES: Nc1ncnc2c1ncn2[C@@H]1O[C@H](COP(=O)(O)OP(=O)(O)O[C@@H]2O[C@H]([C@H](O)CO)[C@@H](O)[C@H](O)[C@@H]2O)[C@@H](O)[C@H]1O [Compound H1b-ADP, D-glycero-D-manno-heptose-1β-ADP]
TLR-9 agonist activity (TLR-9): TLR-9 agonist
